According to patent US4567198A, “Ethanethioates and mercaptoamides and use thereof as analgesic and enkephalinase inhibitory compounds” (Roussel Uclaf, priority 1983, dated 1986):

Target: T1, Enkephalinase (Rattus norvegicus, UniProt P07861)
T1 construct: from tissue; host or cells: rat striatum, membrane fraction (20,000 g pellet)
T1 sequence (P07861 1-750): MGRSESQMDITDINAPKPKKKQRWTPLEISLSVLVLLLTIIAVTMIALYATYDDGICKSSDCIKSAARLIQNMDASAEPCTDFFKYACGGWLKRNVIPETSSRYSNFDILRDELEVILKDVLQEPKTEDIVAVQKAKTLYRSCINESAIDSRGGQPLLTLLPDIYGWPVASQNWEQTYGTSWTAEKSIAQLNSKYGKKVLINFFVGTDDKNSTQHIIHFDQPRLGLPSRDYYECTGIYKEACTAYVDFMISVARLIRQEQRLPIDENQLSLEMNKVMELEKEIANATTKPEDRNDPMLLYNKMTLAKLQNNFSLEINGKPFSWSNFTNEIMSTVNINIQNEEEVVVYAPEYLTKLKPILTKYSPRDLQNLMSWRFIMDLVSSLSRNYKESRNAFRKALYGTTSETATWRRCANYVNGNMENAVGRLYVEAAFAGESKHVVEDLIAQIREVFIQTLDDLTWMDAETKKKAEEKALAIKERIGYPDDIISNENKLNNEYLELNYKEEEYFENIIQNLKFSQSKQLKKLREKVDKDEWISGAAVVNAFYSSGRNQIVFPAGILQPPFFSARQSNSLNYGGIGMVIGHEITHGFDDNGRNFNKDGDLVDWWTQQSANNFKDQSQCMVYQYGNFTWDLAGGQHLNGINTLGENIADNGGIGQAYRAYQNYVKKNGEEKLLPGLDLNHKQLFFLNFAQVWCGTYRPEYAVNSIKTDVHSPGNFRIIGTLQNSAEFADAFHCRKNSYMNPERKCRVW
Assay: Inhibition of enkephalinase in rat striatum membrane fraction (hydrolysis of tritiated leucine-enkephaline)
Type: biochemical
Settings: striatum membrane fraction of rats; 20 nanomoles tritiated leucine-enkephaline, 1 mM puromycin, 25° C., 15 minutes, Tris pH 7.4; read-out: Enkephalinase inhibition CI50
Experimental: Enkephalinase activity was determined in a striatum membrane fraction of rats. The straitum was placed in ice and was homogenized in buffered 0.05M Tris with a pH of 7.4 (20 times the volume) and after a first centrifugation at 1000 g, the particular fraction obtained was subjected to two centrifugations for 10 minutes at 20,000 g. The culot was then suspended in buffered Tris and kept at 4° C. The amount of proteins was determined by the Comassie blue method.
After preincubation at 25° C. for 15 minutes, an aliquot of proteins was incubated at 25° C. for 15 minutes in the presence of 20 nanomoles of tritiated leucine-enkephaline (against the first amino acid) previously purified, of 1 mM of puromycin and the test product in buffered Tris. The hydrolysis reaction was stopped by addition of 0.2N hydrochloric acid and the icubate was subjected to a deproteinization by heating at 95° C. for 15 minutes. Under these conditions, the kinetic reaction was linear. The tritiated metabolites obtained by hydrolysis were separated from enkephaline by chromatography over a column of porapak Q and elution with buffered Tris whereby enkephaline was retained in the column and was released in the following ethanolic phase. The activity of the different products was expressed in 50% inhibiting concentration called CI50 in Table I.

| IC50 [µM] | SMILES |
| --- | --- |
| 40 | O=C(CCS)Nc1ccccc1 [N--phenyl-3-mercapto-propanamide, N-phenyl-3-mercapto-propanamide] |
| 130 | CC(=O)SCC(=O)Nc1nccs1 [Ethanethioate of S-[2-(2-thiazolylamino)-2-oxo-ethyl]] |
| 30 | O=C(CS)Nc1nccs1 [N--(2-thiazolyl)-2-mercapto-acetamide, N-(2-thiazolyl)-2-mercapto-acetamide] |
| 5 | O=C(CS)Nc1ccc(Cl)cc1 [N--(4-chlorophenyl)-2-mercapto-acetamide, N-(4-chlorophenyl)-2-mercapto-acetamide] |
| 6 | CC(=O)SCC(=O)Nc1ccc(Cl)cc1 [Ethanethioate of S-[2-(4-chlorophenylamino)-2-oxo-ethyl]] |
| 3 | O=C(CS)Nc1ccccc1 [N--phenyl-2-mercapto-acetamide, N-phenyl-2-mercapto-acetamide] |
